# Assay results: US11318134B2, “Benzamide compounds” (priority 2018, dated 2022)
# pIC50, pKd: −log10 of the molar value.
# Experiments:
# RS4;11 cells = test: RS4;11 cell proliferation assay (CellTiter-Glo); format: cell-based; conditions: Homo sapiens, RS4-11, 48 h, read-out: RS4;11 (nM), CTG IC50
# Method: Cell proliferation was measured using the CellTiter-Glo® Luminescent Cell Viability Assay. The assay involved the addition of a single reagent (CellTiter-Glo® Reagent) directly to cells cultured in serum-supplemented medium.
# Each compound evaluated was prepared as a DMSO stock solution (10 mM). Compounds were tested in duplicate on each plate, with a 10-point serial dilution curve (1:3 dilution). Compound treatment (1.0 μL) was added from the compound dilution plate to the cell plate. The highest compound concentration was 10 μM (final), with a 0.1% final DMSO concentration. Plates were then incubated at 37° C., 5% CO2. After 48 h of compound treatment for RS4;11 or 72 h for NCI-H1963, cell plates were equilibrated at rt for approximately 30 mins. An equi-volume amount of CellTiter-Glo® Reagent (40 μL) was added to each well. […] Luminescence was recorded using a Envision plate reader according to CellTiter-Glo protocol. IC50 of each compound was calculated using GraphPad Prism by nonlinear regression analysis.
# Bcl-XL [1] = molecular target: T1, Bcl-XL (Homo sapiens (Human), UniProt Q07817); test: Bcl-2 protein family binding assay (Bcl2scan platform), Bcl-XL; conditions: BIM peptide ligand, 11-point dilution, read-out: Bc1-XL Kd (nm)
# T1 sequence (Q07817 whole entry): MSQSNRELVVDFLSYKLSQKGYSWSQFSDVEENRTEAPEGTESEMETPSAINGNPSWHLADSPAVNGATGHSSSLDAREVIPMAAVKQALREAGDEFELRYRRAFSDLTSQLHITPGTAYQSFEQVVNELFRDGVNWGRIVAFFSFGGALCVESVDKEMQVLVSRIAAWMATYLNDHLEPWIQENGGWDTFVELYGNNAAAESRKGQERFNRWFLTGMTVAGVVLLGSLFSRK
# Method: (§1) E. coli were grown to log-phase and infected with T7 phage from a frozen stock (multiplicity of infection=0.4) and incubated with shaking at 32° C. until lysis (90-150 minutes). The lysates were centrifuged (5,000×g) and filtered (0.2 μm) to remove cell debris. […] The liganded beads were blocked with excess biotin and washed with blocking buffer (SeaBlock (Pierce), 1% BSA, 0.05% Tween 20, 1 mM DTT) to remove unbound ligand and to reduce non-specific phage binding. […] Test compounds were prepared as 100× stocks in 100% DMSO. Kds were determined using an 11-point 3-fold compound dilution series with one DMSO control point. […] The compounds were then diluted directly into the assays such that the final concentration of DMSO was 0.9%. All reactions performed in polypropylene 384-well plates. Each was a final volume of 0.02 ml. […] The BCL2 concentration in the eluates was measured by qPCR. Binding constants (Kds) were calculated with a standard dose-response curve using the Hill equation:
# (§2) [formula] The Hill Slope was set to −1. Curves were fitted using a non-linear least square fit with the Levenberg-Marquardt algorithm.
# Bcl-2 [2] = molecular target: T2, Bcl-2 (Homo sapiens (Human), UniProt P10415); test: Bcl-2 protein family binding assay (Bcl2scan platform), Bcl-2; conditions: BIM peptide ligand, 11-point dilution, read-out: Bc1-2 Kd (nm)
# T2 sequence (P10415 whole entry): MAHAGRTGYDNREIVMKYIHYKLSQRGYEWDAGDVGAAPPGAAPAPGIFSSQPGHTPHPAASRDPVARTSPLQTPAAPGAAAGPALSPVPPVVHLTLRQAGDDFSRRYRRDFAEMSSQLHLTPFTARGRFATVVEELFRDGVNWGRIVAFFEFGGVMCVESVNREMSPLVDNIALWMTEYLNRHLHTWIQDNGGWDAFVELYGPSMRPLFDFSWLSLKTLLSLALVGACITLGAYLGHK
# Method: as §1, §2
# Bcl-2 [3] = molecular target: T2, Bcl-2; test: Bcl-2 HTRF assay (FAM-Bak peptide); format: binding; conditions: HTRF, 4 nM Bcl-2, 100 nM FAM-Bak peptide; read-out: Bc1-2 IC50
# Bcl-XL [4] = molecular target: T1, Bcl-XL; test: Bcl-XL HTRF assay (FAM-Bad peptide); format: binding; conditions: HTRF, 3 nM Bcl-XL, 40 nM FAM-Bad peptide; read-out: Bc1-XL IC50
Structure (SMILES),IC50 (RS4;11 cells) [nM],pKd (Bcl-XL [1]),pKd (Bcl-2 [2]),pIC50 (Bcl-2 [3]),pIC50 (Bcl-XL [4])
"CC1(C)CCC(CN2CCN(c3ccc(C(=O)NS(=O)(=O)c4ccc(NCC5(F)CCOCC5)c([N+](=O)[O-])c4)c(Oc4cnc5[nH]ccc5c4)c3)CC2)=C(C23CC(C(F)(F)F)(C2)C3)C1 [Example 30, 2-((1H-pyrrolo[2,3-b]pyridin-5-yl)oxy)-4-(4-((4,4-dimethyl-2-(3-(trifluoromethyl)bicyclo[1.1.1]pentan-1-yl)cyclohex-1l-en-1-yl)methyl)piperazin-1-yl)-N-((4-(((4-fluorotetrahydro-2H-pyran-4-yl)methyl)amino)-3-nitrophenyl)sulfonyl)benzamide]",< 100,< 7.00,> 8.00,,
"CC1(C)CCC(CN2CCN(c3ccc(C(=O)NS(=O)(=O)c4ccc(OCC5(F)CCOCC5)c([N+](=O)[O-])c4)c(Oc4cnc5[nH]ccc5c4)c3)CC2)=C(C23CC(C(F)(F)F)(C2)C3)C1 [Example 31, 2-((1H-pyrrolo[2,3-b]pyridin-5-yl)oxy)-4-(4-((4,4-dimethyl-2-(3-(trifluoromethyl)bicyclo[1.1.1]pentan-1-yl)cyclohex-1-en-1-yl)methyl)piperazin-1-yl)-N-((4-((4-fluorotetrahydro-2H-pyran-4-yl)methoxy)-3-nitrophenyl)sulfonyl)benzamide]",< 100,< 7.00,> 8.00,,
"CC1(C)CCC(CN2CCN(c3ccc(C(=O)NS(=O)(=O)c4ccc(NC[C@H]5CC[C@](C)(O)CC5)c([N+](=O)[O-])c4)c(Oc4cnc5[nH]ccc5c4)c3)CC2)=C(C23CC(C(F)(F)F)(C2)C3)C1 [Example 32, 2-((1H-pyrrolo[2,3-b]pyridin-5-yl)oxy)-4-(4-((4,4-dimethyl-2-(3-(trifluoromethyl)bicyclo[1.1.1]pentan-1-yl)cyclohex-1-en-1-yl)methyl)piperazin-1-yl)-N-((4-((((1r,4r)-4-hydroxy-4-methylcyclohexyl)methyl)amino)-3-nitrophenyl)sulfonyl)benzamide]",< 100,< 7.00,> 8.00,,
"CC1(C)CCC(CN2CCN(c3ccc(C(=O)NS(=O)(=O)c4ccc(NCC5CCOCC5)c([N+](=O)[O-])c4)c(Oc4cnc5[nH]ccc5c4)c3)CC2)=C(C23CC(C(F)F)(C2)C3)C1 [Example 33, 2-((1H-pyrrolo[2,3-b]pyridin-5-yl)oxy)-4-(4-((2-(3-(difluoromethyl)bicyclo[1.1.1]pentan-1-yl)-4,4-dimethylcyclohex-1-en-1-yl)methyl)piperazin-1-yl)-N-((3-nitro-4-(((tetrahydro-2H-pyran-4-yl)methyl)amino)phenyl)sulfonyl)benzamide]",< 100,< 7.00,> 8.00,,
"CC1(C)CCC(CN2CCN(c3ccc(C(=O)NS(=O)(=O)c4ccc(NCC5(F)CCOCC5)c([N+](=O)[O-])c4)c(Oc4cnc5[nH]ccc5c4)c3)CC2)=C(C23CC(C(F)F)(C2)C3)C1 [Example 35, 2-((1H-pyrrolo[2,3-b]pyridin-5-yl)oxy)-4-(4-((2-(3-(difluoromethyl)bicyclo[1.1.1]pentan-1-yl)-4,4-dimethylcyclohex-1-en-1-yl)methyl)piperazin-1-yl)-N-((4-(((4-fluorotetrahydro-2H-pyran-4-yl)methyl)amino)-3-nitrophenyl)sulfonyl)benzamide]",< 100,< 7.00,> 8.00,,
"CC1(C)CCC(CN2CCN(c3ccc(C(=O)NS(=O)(=O)c4ccc(OCC5(F)CCOCC5)c([N+](=O)[O-])c4)c(Oc4cnc5[nH]ccc5c4)c3)CC2)=C(C23CC(C(F)F)(C2)C3)C1 [Example 36, 2-((1H-pyrrolo[2,3-b]pyridin-5-yl)oxy)-4-(4-((2-(3-(difluoromethyl)bicyclo[1.1.1]pentan-1-yl)-4,4-dimethylcyclohex-1-en-1-yl)methyl)piperazin-1-yl)-N-((4-((4-fluorotetrahydro-2H-pyran-4-yl)methoxy)-3-nitrophenyl)sulfonyl)benzamide]",< 100,7.00 to 8.00,> 8.00,,
"CN1CCC(F)(CNc2ccc(S(=O)(=O)NC(=O)c3ccc(N4CCN(CC5=C(C67CC(C(F)F)(C6)C7)CC(C)(C)CC5)CC4)cc3Oc3cnc4[nH]ccc4c3)cc2[N+](=O)[O-])CC1 [Example 38, 2-((1H-pyrrolo[2,3-b]pyridin-5-yl)oxy)-4-(4-((2-(3-(difluoromethyl)bicyclo[1.1.1]pentan-1-yl)-4,4-dimethylcyclohex-1-en-1-yl)methyl)piperazin-1-yl)-N-((4-(((4-fluoro-1-methylpiperidin-4-yl)methyl)amino)-3-nitrophenyl)sulfonyl)benzamide]",< 100,7.00 to 8.00,> 8.00,,
"CC(C)C12CC(C3=C(CN4CCN(c5ccc(C(=O)NS(=O)(=O)c6ccc(NCC7CCOCC7)c([N+](=O)[O-])c6)c(Oc6cnc7[nH]ccc7c6)c5)CC4)CCC(C)(C)C3)(C1)C2 [Example 39, 2-((1H-pyrrolo[2,3-b]pyridin-5-yl)oxy)-4-(4-((2-(3-isopropylbicyclo[0.1.1]pentan-1-yl)-4,4-dimethylcyclohex-1-en-1-yl)methyl)piperazin-1-yl)-N-((3-nitro-4-(((tetrahydro-2H-pyran-4-yl)methyl)amino)phenyl)sulfonyl)benzamide]",< 100,< 7.00,7.00 to 8.00,,
"CC1(C)CCC(CN2CCN(c3ccc(C(=O)NS(=O)(=O)c4ccc(NCC5CCOCC5)c([N+](=O)[O-])c4)c(Oc4cnc5[nH]ccc5c4)c3)CC2)=C(C23CC(C(C)(F)F)(C2)C3)C1 [Example 40, 2-(1H-pyrrolo[2,3-b]pyridin-5-yloxy)-4-(4-((2-(3-(1,1-difluoroethyl)bicyclo[1.1.1]pentan-1-yl)-4,4-dimethylcyclohex-1-enyl)methyl)piperazin-1-yl)-N-(3-nitro-4-((tetrahydro-2H-pyran-4-yl)methylamino)phenylsulfonyl)benzamide]",< 100,< 7.00,> 8.00,,
CC1(C)CCC(C23CC(Cl)(C2)C3)=C(CN2CCN(c3ccc(C(=O)NS(=O)(=O)c4ccc(N[C@H](CCN5CCC(O)CC5)CSc5ccccc5)c(S(=O)(=O)C(F)(F)F)c4)cc3)CC2)C1 [Example 46],100 to 1000,,,≥ 8.00,≥ 8.00
"CC1(C)CCC(C23CC(C)(C2)C3)=C(CN2CCN(c3ccc(C(=O)NS(=O)(=O)c4ccc(N[C@H](CCN5CCOCC5)CSc5ccccc5)c(S(=O)(=O)C(F)(F)F)c4)cc3)CC2)C1 [Example 47, (R)-4-(4-((5,5-Dimethyl-2-(3-methylbicyclo[1.1.1]pentan-1-yl)cyclohex-1-enyl)methyl)piperazin-1-yl)-N-(4-(4-morpholino-1-(phenylthio)butan-2-ylamino)-3-(trifluoromethylsulfonyl)phenylsulfonyl)benzamide]",> 1000,7.00 to 8.00,< 7.00,,
"CN(CCO)CC[C@H](CSc1ccccc1)Nc1ccc(S(=O)(=O)NC(=O)c2ccc(N3CCN(CC4=C(C56CC(C)(C5)C6)CC(C)(C)CC4)CC3)cc2)cc1S(=O)(=O)C(F)(F)F [Example 49, (R)-4-(4-((4,4-dimethyl-2-(3-methylbicyclo[1.1.1]pentan-1-yl)cyclohex-1-en-1-yl)methyl)piperazin-1-yl)-N-((4-((4-((2-hydroxyethyl)(methyl)amino)-1-(phenylthio)butan-2-yl)amino)-3-((trifluoromethyl)sulfonyl)phenyl)sulfonyl)benzamide]",100 to 1000,,,≥ 8.00,≥ 8.00
"CCC12CC(C3=C(CN4CCN(c5ccc(C(=O)NS(=O)(=O)c6ccc(N[C@H](CCN(C)CCO)CSc7ccccc7)c(S(=O)(=O)C(F)(F)F)c6)cc5)CC4)CCC(C)(C)C3)(C1)C2 [Example 50, (R)-4-(4-((2-(3-Ethylbicyclo[1.1.1]pentan-1-yl)-4,4-dimethylcyclohex-1-en-1-yl)methyl)piperazin-1-yl)-N-((4-((4-((2-hydroxyethyl)(methyl)amino)-1-(phenylthio)butan-2-yl)amino)-3-((trifluoromethyl)sulfonyl)phenyl)sulfonyl)benzamide]",100 to 1000,,,≥ 8.00,≥ 8.00
